Reference: the NIST ThermoML archive (doi:10.1016/j.jct.2013.10.034)

Experiment: xn = mol fraction of the nth substance listed
Settings: 100 kPa, Liquid; for mass density: Vibrating tube method; for viscosity: Falling or rolling sphere viscometry

CCCC[N+]1(C)CCCCC1.N#C[N-]C#N [1-butyl-1-methylpiperidinium dicyanamide] + O
Settings	mass density [kg/m3]	viscosity [mPa·s]
318.15 K, x1 = 1	1005.2	–
323.15 K, x1 = 0.0936	992.05	3.072
323.15 K, x1 = 0.1748	995.43	4.8
323.15 K, x1 = 0.2651	997.8	7.52
323.15 K, x1 = 0.3581	999.24	10.45
323.15 K, x1 = 0.4952	1000.53	14.98
323.15 K, x1 = 0.6246	1001.31	19.5
323.15 K, x1 = 0.7878	1001.95	27.35
323.15 K, x1 = 0.9216	1002.33	35.62
323.15 K, x1 = 1	1002.47	41.31
328.15 K, x1 = 0.0936	988.8	2.741
328.15 K, x1 = 0.1748	992.22	4.249
328.15 K, x1 = 0.2651	994.68	6.592
328.15 K, x1 = 0.3581	996.18	9.141
328.15 K, x1 = 0.4952	997.63	12.99
328.15 K, x1 = 0.6246	998.47	16.43
328.15 K, x1 = 0.7878	999.19	23.47
328.15 K, x1 = 0.9216	999.6	30.08
328.15 K, x1 = 1	999.77	34.72
333.15 K, x1 = 0.0936	985.51	2.461
333.15 K, x1 = 0.1748	988.96	3.788
333.15 K, x1 = 0.2651	991.37	6.05
333.15 K, x1 = 0.3581	993.2	8.041
333.15 K, x1 = 0.4952	994.75	11.37
333.15 K, x1 = 0.6246	995.66	13.93
333.15 K, x1 = 0.7878	996.46	20.41
333.15 K, x1 = 0.9216	996.9	25.64
333.15 K, x1 = 1	997.08	29.45
338.15 K, x1 = 0.0936	982.59	2.223
338.15 K, x1 = 0.1748	985.7	3.407
338.15 K, x1 = 0.2651	988.38	5.181
338.15 K, x1 = 0.3581	990.24	7.12
338.15 K, x1 = 0.4952	991.9	10.04
338.15 K, x1 = 0.6246	992.85	12.9
338.15 K, x1 = 0.7878	993.65	17.17
338.15 K, x1 = 0.9216	994.16	21.35
338.15 K, x1 = 1	994.39	–
343.15 K, x1 = 0.0936	979.99	2.021
343.15 K, x1 = 0.1748	982.41	3.088
343.15 K, x1 = 0.2651	984.88	4.682
343.15 K, x1 = 0.3581	986.93	6.355
343.15 K, x1 = 0.4952	988.84	8.928
343.15 K, x1 = 0.6246	990.06	11.72
343.15 K, x1 = 0.7878	990.92	15.74
343.15 K, x1 = 0.9216	991.45	19.52
343.15 K, x1 = 1	991.72	21.98
